According to PubChem BioAssay (NCI):
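In this assay, cells in 96-well plates receive the compound at five concentrations for 48 hours. Endpoints are linearly interpolated between the surrounding concentrations. Here, GI50 denotes the concentration required for 50% inhibition of growth. TGI denotes the concentration required for complete inhibition of growth.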

How the values were obtained:
Assay in all cases: inhibition of tumour cell growth, NCI panel, 48 h; in the data active = GI50 below about 0.43 µM; inactive = the rest
SW-620 colon = system: SW-620 colon
NCI-H226 lung = system: NCI-H226 lung
NCI-H460 lung = system: NCI-H460 lung
OVCAR-8 ovarian = system: OVCAR-8 ovarian
PC-3 prostate = system: PC-3 prostate
A498 renal = system: A498 renal
OVCAR-3 ovarian = system: OVCAR-3 ovarian
HCC-2998 colon = system: HCC-2998 colon
LOX IMVI melanoma = system: LOX IMVI melanoma
CAKI-1 renal = system: CAKI-1 renal
SK-OV-3 ovarian = system: SK-OV-3 ovarian
UACC-62 melanoma = system: UACC-62 melanoma
SNB-19 CNS = system: SNB-19 CNS
KM12 colon = system: KM12 colon
MCF7 breast = system: MCF7 breast
ACHN renal = system: ACHN renal
U251 CNS = system: U251 CNS
UACC-257 melanoma = system: UACC-257 melanoma
A549 NSCLC = system: A549 NSCLC
T-47D breast = system: T-47D breast
NCI/ADR-RES ovarian = system: NCI/ADR-RES ovarian
SNB-75 CNS = system: SNB-75 CNS
HCT-116 colon = system: HCT-116 colon
HT29 colon = system: HT29 colon
HL-60(TB) leukemia = system: HL-60(TB) leukemia
HCT-15 colon = system: HCT-15 colon
786-0 renal = system: 786-0 renal
NCI-H23 lung = system: NCI-H23 lung
SF-295 CNS = system: SF-295 CNS
SK-MEL-2 melanoma = system: SK-MEL-2 melanoma
OVCAR-4 ovarian = system: OVCAR-4 ovarian
NCI-H522 lung = system: NCI-H522 lung
SK-MEL-28 melanoma = system: SK-MEL-28 melanoma
SN12C renal = system: SN12C renal
MDA-MB-231 breast = system: MDA-MB-231 breast
SF-268 CNS = system: SF-268 CNS
OVCAR-5 ovarian = system: OVCAR-5 ovarian
MALME-3M melanoma = system: MALME-3M melanoma
SK-MEL-5 melanoma = system: SK-MEL-5 melanoma
HOP-62 NSCLC = system: HOP-62 NSCLC
MDA-MB-435 = system: MDA-MB-435
K-562 leukemia = system: K-562 leukemia
UO-31 renal = system: UO-31 renal
IGROV1 ovarian = system: IGROV1 ovarian
CCRF-CEM leukemia = system: CCRF-CEM leukemia
TK-10 renal = system: TK-10 renal
EKVX NSCLC = system: EKVX NSCLC
HS 578T breast = system: HS 578T breast
COLO 205 colon = system: COLO 205 colon
RPMI-8226 leukemia = system: RPMI-8226 leukemia
HOP-92 NSCLC = system: HOP-92 NSCLC
RXF 393 renal = system: RXF 393 renal
BT-549 breast = system: BT-549 breast
MOLT-4 leukemia = system: MOLT-4 leukemia
M14 melanoma = system: M14 melanoma
DU-145 prostate = system: DU-145 prostate

Oc1ccc(Cc2ccc(O)c3ncccc23)c2cccnc12
active: GI50 (SW-620 colon) 41.7 nM | GI50 (NCI-H226 lung) 373 nM | GI50 (NCI-H460 lung) 32.3 nM | GI50 (OVCAR-8 ovarian) 47.7 nM | GI50 (PC-3 prostate) 58.3 nM | GI50 (A498 renal) 223 nM | GI50 (OVCAR-3 ovarian) 138 nM | GI50 (LOX IMVI melanoma) 40.2 nM | GI50 (CAKI-1 renal) 341 nM | GI50 (SK-OV-3 ovarian) 214 nM | GI50 (UACC-62 melanoma) 40.8 nM | GI50 (SNB-19 CNS) 36.1 nM | GI50 (KM12 colon) 149 nM | GI50 (MCF7 breast) 52.4 nM | GI50 (ACHN renal) 36.7 nM | GI50 (U251 CNS) 35.5 nM | GI50 (UACC-257 melanoma) 236 nM | GI50 (A549 NSCLC) 37.1 nM | GI50 (T-47D breast) 150 nM | GI50 (NCI/ADR-RES ovarian) 212 nM | GI50 (SNB-75 CNS) 36.8 nM | GI50 (HCT-116 colon) 35.9 nM | GI50 (HL-60(TB) leukemia) 263 nM | GI50 (HCT-15 colon) 71.2 nM | GI50 (786-0 renal) 193 nM | GI50 (NCI-H23 lung) 44.8 nM | GI50 (SF-295 CNS) 294 nM | GI50 (SK-MEL-2 melanoma) 228 nM | GI50 (OVCAR-4 ovarian) 371 nM | GI50 (NCI-H522 lung) 43.9 nM | GI50 (SK-MEL-28 melanoma) 60.7 nM | GI50 (SN12C renal) 36.1 nM | GI50 (MDA-MB-231 breast) 48.7 nM | GI50 (SF-268 CNS) 52.7 nM | GI50 (OVCAR-5 ovarian) 269 nM | GI50 (MALME-3M melanoma) 49.7 nM | GI50 (SK-MEL-5 melanoma) 120 nM | GI50 (HOP-62 NSCLC) 44.2 nM | GI50 (MDA-MB-435) 38.3 nM | GI50 (K-562 leukemia) 42.5 nM | GI50 (UO-31 renal) 32.2 nM | GI50 (IGROV1 ovarian) 77.6 nM | GI50 (CCRF-CEM leukemia) 209 nM | GI50 (TK-10 renal) 238 nM | GI50 (EKVX NSCLC) 344 nM | GI50 (HS 578T breast) 36.5 nM | GI50 (RPMI-8226 leukemia) 42.4 nM | GI50 (HOP-92 NSCLC) 11.4 nM | GI50 (RXF 393 renal) 154 nM | GI50 (BT-549 breast) 38.2 nM | GI50 (MOLT-4 leukemia) 231 nM | GI50 (M14 melanoma) 42.3 nM | GI50 (DU-145 prostate) 56.4 nM
653 nM: TGI (SK-OV-3 ovarian)
53200 nM: TGI (PC-3 prostate)
709 nM: TGI (UACC-257 melanoma)
996 nM: TGI (TK-10 renal)
804 nM: TGI (UACC-62 melanoma)
29600 nM: TGI (SNB-19 CNS)
1090 nM: TGI (HOP-62 NSCLC)
1550 nM: TGI (RPMI-8226 leukemia)
948 nM: TGI (SF-295 CNS)
531 nM: TGI (NCI-H522 lung)
> 100000 nM: TGI (SW-620 colon) | TGI (NCI-H460 lung) | TGI (OVCAR-8 ovarian) | TGI (OVCAR-3 ovarian) | TGI (HCC-2998 colon) | TGI (LOX IMVI melanoma) | TGI (CAKI-1 renal) | TGI (KM12 colon) | TGI (MCF7 breast) | TGI (ACHN renal) | TGI (U251 CNS) | TGI (NCI/ADR-RES ovarian) | TGI (SNB-75 CNS) | TGI (HCT-116 colon) | TGI (HT29 colon) | TGI (HL-60(TB) leukemia) | TGI (HCT-15 colon) | TGI (786-0 renal) | TGI (NCI-H23 lung) | TGI (OVCAR-4 ovarian) | TGI (SK-MEL-28 melanoma) | TGI (SN12C renal) | TGI (MDA-MB-231 breast) | TGI (SF-268 CNS) | TGI (OVCAR-5 ovarian) | TGI (MALME-3M melanoma) | TGI (MDA-MB-435) | TGI (K-562 leukemia) | TGI (UO-31 renal) | TGI (IGROV1 ovarian) | TGI (CCRF-CEM leukemia) | TGI (EKVX NSCLC) | TGI (HS 578T breast) | TGI (COLO 205 colon) | TGI (RXF 393 renal) | TGI (BT-549 breast) | TGI (MOLT-4 leukemia) | TGI (M14 melanoma) | TGI (DU-145 prostate)
51.3 nM: TGI (HOP-92 NSCLC)
681 nM: TGI (SK-MEL-2 melanoma)
609 nM: TGI (SK-MEL-5 melanoma)
inactive: GI50 (HCC-2998 colon) 524 nM | GI50 (HT29 colon) > 100000 nM | GI50 (COLO 205 colon) > 100000 nM
706 nM: TGI (A498 renal)
704 nM: TGI (T-47D breast)
73900 nM: TGI (A549 NSCLC)
42700 nM: TGI (NCI-H226 lung)
